Test results reported in patent US20070059254A1, “Compositions for delivering 5-ht agonists across the oral mucosa and methods of use thereof” (TRANSORAL PHARMACEUTICALS, INC., priority 2003, published 2007).

Assays:
[1] = Dissociation constant (pKa) and extent of ionization; type: physicochemical
Description: Conversion of the ionized form to the un-ionized form for the 5-HT agonist is related to pH according to the formula: pH=pKa+Log10 (un-ionized concentration/ionized concentration). When the pH is the same as the pKa, equimolar concentrations of the un-ionized form and ionized form exist. […] As noted above, the un-ionized form is lipophilic and, therefore, more capable of passing through mucous membranes such as the oral mucosa than the ionized form, which is lipophobic in nature. Accordingly, increasing the pH of the saliva favors conversion of the ionized form into the un-ionized form for basic compounds such as the 5-HT agonists described herein, and the final pH can be determined by making use of the above formula. […] The final pH values of these solutions were adjusted using freshly prepared 0.01 M sodium bicarbonate/sodium carbonate buffer. Permeation was measured by determining the concentration of sumatriptan in the acceptor cell, and is expressed as Pe (effective permeability in centimeters per second).

[2] = Sumatriptan membrane assay (dodecane membrane between donor and acceptor cell); type: in vitro ADME; settings: pH 9.0 to 10.0
Description: Topics Med. Chem., 1:277-351 (2001). This assay uses a lipid-coated membrane to predict lipid mucosal membrane penetration. The membrane apparatus consists of a dodecane membrane sandwiched between a donor and acceptor cell. The lipid-coated membrane is less porous then the mucous membrane of the oral cavity. Thus, the enhancement seen in the membrane assay is very likely to be magnified in vivo. […] The final pH values of these solutions were adjusted using freshly prepared 0.01 M sodium bicarbonate/sodium carbonate buffer. Permeation was measured by determining the concentration of sumatriptan in the acceptor cell, and is expressed as Pe (effective permeability in centimeters per second).

un-ionized fraction ([1]; at pH 10.5): 90%
un-ionized fraction ([1]; at pH 11.5): 100%
change of effective permeability with pH [2]: increased with pH
SMILES: CNS(=O)(=O)Cc1ccc2[nH]cc(CCN(C)C)c2c1 [sumatriptan]
